# Data: patent publication US9284284B2, “Oxazine derivatives and their use in the treatment of disease” (NOVARTIS AG, priority 2011, dated 2016)
# How the values were obtained:
# human BACE-1 = human BACE-1 (Homo sapiens (Human), UniProt P56817); assay: Test 1: Inhibition of Human BACE-1; type: biochemical; details: recombinant BACE-1, pH 4.5, fluorescence-quenched substrate
# Description: Test 1: Inhibition of Human BACE-1
# (§1) Recombinant BACE-1 (extracellular domain, expressed in baculovirus and purified using standard methods) at 0.1 to 1 nM concentrations is incubated with the test compound at various concentrations for 1 hour at room temperature in 100 mM acetate buffer, pH 4.5, containing 0.1% CHAPS. Activity was measured using a final concentration of 3 μM of the fluorescence-quenched substrate Q-C(HSO3)-Ile-Asp-Leu-Ala-Val-Leu-Asp-HN—CH2—CH2-Mca, where Q=2-nitro-5-amino benzoic acid and Mca=7-methoxy-4-coumarinyl acetic acid. […] Fluorescence increase was followed for 15 min, in 1 minute's intervals. The fluorescence/time slopes were calculated from duplicate wells and from wells without inhibitor and the IC50 values were calculated using a logistic 4-parameter model.
# human BACE-2 = human BACE-2 (Homo sapiens (Human), UniProt Q9Y5Z0); assay: Test 2: Inhibition of Human BACE-2; type: biochemical; details: recombinant BACE-2, pH 4.5, fluorescence-quenched substrate
# Description: Test 2: Inhibition of Human BACE-2
# as §1, with “BACE-2” for “BACE-1”
# [1] = test system: amyloid peptide 1-40 release; assay: Test 4: Inhibition of Cellular Release of Amyloid Peptide 1-40; type: cell-based; details: Cricetulus griseus; Chinese hamster ovary cells transfected with the human gene for amyloid precursor protein, 24 hours; read-out: Amyloid-β1-40 release IC50
# Description: Chinese hamster ovary cells are transfected with the human gene for amyloid precursor protein. The cells are plated at a density of 8000 cells/well into 96-well microtiter plates and cultivated for 24 hours in DMEM cell culture medium containing 10% FCS. The test compound is added to the cells at various concentrations, and the cells are cultivated for 24 hours in the presence of the test compound. […] The potency of the compound is calculated from the percentage of inhibition of amyloid peptide release as a function of the test compound concentration.
# Sequence of human BACE-1 (P56817 46-457): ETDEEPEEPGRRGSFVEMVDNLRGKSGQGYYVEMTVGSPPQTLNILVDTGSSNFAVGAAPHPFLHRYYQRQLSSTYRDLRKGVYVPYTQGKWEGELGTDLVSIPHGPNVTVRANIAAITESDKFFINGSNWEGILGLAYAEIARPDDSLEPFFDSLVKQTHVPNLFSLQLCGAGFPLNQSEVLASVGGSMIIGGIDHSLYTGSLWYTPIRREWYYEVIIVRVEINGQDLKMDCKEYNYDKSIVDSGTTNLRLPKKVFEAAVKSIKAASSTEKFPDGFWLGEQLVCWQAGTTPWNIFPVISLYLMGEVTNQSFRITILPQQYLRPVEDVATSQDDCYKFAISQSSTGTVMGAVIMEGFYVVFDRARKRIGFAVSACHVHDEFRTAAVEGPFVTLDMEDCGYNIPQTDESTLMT
# Sequence of human BACE-2 (Q9Y5Z0 63-473): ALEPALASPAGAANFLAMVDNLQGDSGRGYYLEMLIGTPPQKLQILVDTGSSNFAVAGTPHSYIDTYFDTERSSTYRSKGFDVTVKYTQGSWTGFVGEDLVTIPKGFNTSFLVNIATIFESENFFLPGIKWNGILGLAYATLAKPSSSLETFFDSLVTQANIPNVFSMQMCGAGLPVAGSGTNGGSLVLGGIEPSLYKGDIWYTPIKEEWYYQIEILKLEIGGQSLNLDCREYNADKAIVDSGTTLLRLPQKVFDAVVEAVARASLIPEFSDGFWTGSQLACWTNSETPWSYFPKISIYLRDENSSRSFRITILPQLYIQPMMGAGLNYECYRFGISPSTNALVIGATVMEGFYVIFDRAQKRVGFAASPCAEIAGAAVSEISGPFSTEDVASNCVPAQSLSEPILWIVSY
Structure (SMILES),IC50 (human BACE-1) [nM],IC50 (human BACE-2) [nM],IC50 [1] [nM]
"COc1cccnc1Nc1ccc(F)c([C@]2(C)CO[C@@](C)(C(F)(F)F)C(N)=N2)c1 [Example 25, (2R,5R)-5-[2-Fluoro-5-(3-methoxy-pyridin-2-ylamino)-phenyl]-2,5-dimethyl-2-trifluoromethyl-5,6-dihydro-2H-[1,4]oxazin-3-ylamine]",210,27,220
"COc1cc([N+](=O)[O-])cnc1Nc1ccc(F)c([C@]2(C(F)F)COCC(N)=N2)c1 [Example 26, (R)-5-Difluoromethyl-5-[2-fluoro-5-(3-methoxy-5-nitro-pyridin-2-ylamino)-phenyl]-5,6-dihydro-2H-[1,4]oxazin-3-ylamine]",2900,1400,690
"COc1cc(N)cnc1Nc1ccc(F)c([C@]2(C(F)F)COCC(N)=N2)c1 [Example 27, N*2*-[3-((R)-5-Amino-3-difluoromethyl-3,6-dihydro-2H-[1,4]oxazin-3-yl)-4-fluoro-phenyl]-3-methoxy-pyridine-2,5-diamine]",3000,660,2000
"C[C@@]1(c2nc(Nc3ncnc4cc(C(F)(F)F)cnc34)ccc2F)CO[C@@](C)(C(F)(F)F)C(N)=N1 [Example 28, [6-((3R,6R)-5-Amino-3,6-dimethyl-6-trifluoromethyl-3,6-dihydro-2H-[1,4]oxazin-3-yl)-5-fluoro-pyridin-2-yl]-(7-trifluoromethyl-pyrido[3,2-d]pyrimidin-4-yl)-amine]",68,200,150
"Cn1nc(Nc2cccc([C@]3(C)COCC(N)=N3)c2)c2ccccc21 [Example 32, [3-((R)-5-Amino-3-methyl-3,6-dihydro-2H-[1,4]oxazin-3-yl)-phenyl]-(1-methyl-1H-indazol-3-yl)-amine]",> 10000,> 10000,8300
"COc1cnc(N)nc1Nc1ccc(F)c([C@]2(C(F)F)COCC(N)=N2)c1 [N*4*-[3-((R)-5-amino-3-difluoromethyl-3,6-dihydro-2H-[1,4]oxazin-3-yl)-4-fluoro-phenyl]-5-methoxy-pyrimidine-2,4-diamine]",> 10000,> 10000,> 10000

# Further lines, results first:
IC50 (human BACE-1) [nM],IC50 (human BACE-2) [nM],IC50 [1] [nM],Structure (SMILES)
1500,1600,150,"C[C@@]1(c2nc(Nc3ncccc3C#N)ccc2F)CO[C@@](C)(C(F)(F)F)C(N)=N1 [Example 30, 2-[6-((3R,6R)-5-Amino-3,6-dimethyl-6-trifluoromethyl-3,6-dihydro-2H-[1,4]oxazin-3-yl)-5-fluoro-pyridin-2-ylamino]-nicotinonitrile]"
6400,1700,1000,"COc1cccnc1Nc1ccc(F)c([C@]2(C)CO[C@@](C)(C(F)(F)F)C(N)=N2)n1 [Example 31, (2R,5R)-5-[3-Fluoro-6-(3-methoxy-pyridin-2-ylamino)-pyridin-2-yl]-2,5-dimethyl-2-trifluoromethyl-5,6-dihydro-2H-[1,4]oxazin-3-ylamine]"
> 10000,> 10000,> 10000,"C[C@@]1(c2cccc(Nc3n[nH]c4ccccc34)c2)COCC(N)=N1 [[3-((R)-5-amino-3-methyl-3,6-dihydro-2H-[1,4]oxazin-3-yl)-phenyl]-(1H-indazol-3-yl)-amine]"
